Consider 17 compounds from patent publication US9579314B2 (priority 2015, dated 2017).

Molecules are shown by their SMILES.

In one experiment the target is Human M3 receptor (Homo sapiens, UniProt P20309). Conditions: read-out: M3 binding affinity.
Another experiment deals with Human β2 adrenoceptor (Homo sapiens, UniProt P07550). Conditions: read-out: B2 binding affinity.
Sequence of Human β2 adrenoceptor (P07550 whole entry): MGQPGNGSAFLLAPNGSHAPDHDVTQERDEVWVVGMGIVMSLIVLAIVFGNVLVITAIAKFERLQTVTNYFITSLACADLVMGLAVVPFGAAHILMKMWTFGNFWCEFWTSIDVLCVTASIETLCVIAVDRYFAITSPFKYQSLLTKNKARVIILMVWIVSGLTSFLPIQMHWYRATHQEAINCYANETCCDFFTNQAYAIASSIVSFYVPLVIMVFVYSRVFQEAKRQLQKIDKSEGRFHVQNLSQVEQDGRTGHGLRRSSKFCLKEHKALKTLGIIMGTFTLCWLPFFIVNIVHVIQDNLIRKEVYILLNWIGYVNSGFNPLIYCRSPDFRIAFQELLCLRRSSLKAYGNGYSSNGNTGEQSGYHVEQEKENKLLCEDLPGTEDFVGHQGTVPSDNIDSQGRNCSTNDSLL

Sequence of Human M3 receptor (P20309 whole entry): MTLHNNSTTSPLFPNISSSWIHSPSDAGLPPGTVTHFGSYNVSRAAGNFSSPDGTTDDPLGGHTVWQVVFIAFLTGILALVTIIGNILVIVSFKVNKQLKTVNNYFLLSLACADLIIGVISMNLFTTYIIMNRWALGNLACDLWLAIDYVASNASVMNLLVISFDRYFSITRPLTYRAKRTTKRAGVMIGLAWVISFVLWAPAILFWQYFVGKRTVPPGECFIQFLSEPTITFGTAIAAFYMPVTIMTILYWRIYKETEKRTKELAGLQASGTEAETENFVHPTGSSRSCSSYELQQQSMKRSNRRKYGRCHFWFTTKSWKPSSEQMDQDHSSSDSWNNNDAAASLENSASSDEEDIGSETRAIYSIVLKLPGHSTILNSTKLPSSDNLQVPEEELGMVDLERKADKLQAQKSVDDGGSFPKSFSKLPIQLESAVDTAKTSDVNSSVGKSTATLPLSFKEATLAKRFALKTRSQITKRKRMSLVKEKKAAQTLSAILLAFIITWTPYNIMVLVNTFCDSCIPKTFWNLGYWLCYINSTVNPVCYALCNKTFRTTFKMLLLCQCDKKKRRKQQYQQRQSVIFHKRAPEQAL

On to `O=C(c1ccc(CCNC[C@H](O)c2ccc(O)c3[nH]c(=O)ccc23)cc1)N1CCC(COc2cccc([C@](O)(C(=O)OCC3CCN(Cc4ccccc4)CC3)c3ccccc3)c2)CC1` [Compound 31, (S)-(1-Benzylpiperidin-4-yl)methyl 2-hydroxy-2-(3-((1-(4-(2-(((R)-2-hydroxy-2-(8-hydroxy-2-oxo-1,2-dihydroquinolin-5-yl)ethyl)amino)ethyl)benzoyl)piperidin-4-yl)methoxy)phenyl)-2-phenylacetate], for which the IC50 at Human M3 receptor and at Human β2 adrenoceptor was less than 0.3 nM each time.
Take `O=C(NCC1CCN(C(=O)COc2cccc([C@](O)(C(=O)OCC3CCN(Cc4ccccc4)CC3)c3ccccc3)c2)CC1)c1ccc(CCNC[C@H](O)c2ccc(O)c3[nH]c(=O)ccc23)cc1` [Compound 89, (1-benzylpiperidin-4-yl)methyl (S)-2-hydroxy-2-(3-(2-(4-((4-(2-(((R)-2-hydroxy-2-(8-hydroxy-2-oxo-1,2-dihydroquinolin-5-yl)ethyl)amino)ethyl)benzamido)methyl)piperidin-1-yl)-2-oxoethoxy)phenyl)-2-phenylacetate]: the figures for the IC50 at Human M3 receptor and at Human β2 adrenoceptor were 0.3 to 3 nM and less than 0.3 nM, respectively.
Regarding `O=C(NCCCNC[C@H](O)c1ccc(O)c2[nH]c(=O)ccc12)c1ccc(COc2cccc([C@](O)(C(=O)OCC3CCN(Cc4ccccc4)CC3)c3ccccc3)c2)cc1` [Compound 43, (S)-(1-Benzylpiperidin-4-yl)methyl 2-hydroxy-2-(3-((4-((3-(((R)-2-hydroxy-2-(8-hydroxy-2-oxo-1,2-dihydroquinolin-5-yl)ethyl)amino)propyl)carbamoyl)benzyl)oxy)phenyl)-2-phenylacetate], the IC50 on Human M3 receptor and on Human β2 adrenoceptor was less than 0.3 nM each time.
For `O=C(COc1cccc([C@](O)(C(=O)OCC2CCN(Cc3ccccc3)CC2)c2ccccc2)c1)N[C@H]1C[C@H](NC(=O)c2ccc(CCNC[C@H](O)c3ccc(O)c4[nH]c(=O)ccc34)cc2)C1` [Compound 88, (1-benzylpiperidin-4-yl)methyl (S)-2-hydroxy-2-(3-(2-(((1R,3S)-3-(4-(2-(((R)-2-hydroxy-2-(8-hydroxy-2-oxo-1,2-dihydroquinolin-5-yl)ethyl)amino)ethyl)benzamido)cyclobutyl)amino)-2-oxoethoxy)phenyl)-2-phenylacetate], the IC50 at Human M3 receptor was less than 0.3 nM; on Human β2 adrenoceptor, 0.3 to 3 nM.
On the same counts, the results for `O=C(NCCCOc1cccc([C@](O)(C(=O)OCC2CCN(Cc3ccccc3)CC2)c2ccccc2)c1)c1ccc(CNC[C@H](O)c2ccc(O)c3[nH]c(=O)ccc23)cc1` [Compound 32, (S)-(1-benzylpiperidin-4-yl)methyl 2-hydroxy-2-(3-(3-(4-((((R)-2-hydroxy-2-(8-hydroxy-2-oxo-1,2-dihydroquinolin-5-yl)ethyl)amino)methyl)benzamido)propoxy)phenyl)-2-phenylacetate] are 0.3 to 3 nM and less than 0.3 nM.
Regarding `O=C(N[C@@H]1CCCN(C(=O)COc2cccc([C@](O)(C(=O)OCC3CCN(Cc4ccccc4)CC3)c3ccccc3)c2)C1)c1ccc(CNC[C@H](O)c2ccc(O)c3[nH]c(=O)ccc23)cc1` [Compound 75, (1-benzylpiperidin-4-yl)methyl (S)-2-hydroxy-2-(3-(2-((R)-3-(4-((((R)-2-hydroxy-2-(8-hydroxy-2-oxo-1,2-dihydroquinolin-5-yl)ethyl)amino)methyl)benzamido)piperidin-1-yl)-2-oxoethoxy)phenyl)-2-phenylacetate], the IC50 at Human M3 receptor was 0.3 to 3 nM; at Human β2 adrenoceptor it was more than 3 nM.
As for `O=C(NCCCOc1cccc([C@](O)(C(=O)OCC2CCN(Cc3ccccc3)CC2)c2ccccc2)c1)c1ccc(CNC[C@H](O)c2ccc(O)c3[nH]c(=O)ccc23)cc1Cl` [Compound 32H, (S)-(1-benzylpiperidin-4-yl)methyl 2-(3-(3-(2-chloro-4-((((R)-2-hydroxy-2-(8-hydroxy-2-oxo-1,2-dihydroquinolin-5-yl)ethyl)amino)methyl)benzamido)propoxy)phenyl)-2-hydroxy-2-phenylacetate], the IC50 on Human M3 receptor was 0.3 to 3 nM; on Human β2 adrenoceptor, less than 0.3 nM.
On to `O=C(NCc1ccc(COc2cccc([C@](O)(C(=O)OCC3CCN(Cc4ccccc4)CC3)c3ccccc3)c2)cc1)c1ccc(CCNC[C@H](O)c2ccc(O)c3[nH]c(=O)ccc23)cc1` [Compound 42C, (1-benzylpiperidin-4-yl)methyl (S)-2-hydroxy-2-(3-((4-((4-(2-(((R)-2-hydroxy-2-(8-hydroxy-2-oxo-1,2-dihydroquinolin-5-yl)ethyl)amino)ethyl)benzamido)methyl)benzyl)oxy)phenyl)-2-phenylacetate], for which the IC50 at Human M3 receptor was 0.3 to 3 nM; at Human β2 adrenoceptor, less than 0.3 nM.
On to `O=C(OCC1CCN(Cc2ccccc2)CC1)C(O)(c1ccc(F)cc1)c1cccc(OCCCCCNC[C@H](O)c2ccc(O)c3[nH]c(=O)ccc23)c1` (stereo partly drawn) [Compound 3, (1-benzylpiperidin-4-yl)methyl 2-(4-fluorophenyl)-2-hydroxy-2-(3-((5-(((R)-2-hydroxy-2-(8-hydroxy-2-oxo-1,2-dihydroquinolin-5-yl)ethyl)amino)pentyl)oxy)phenyl)acetate], for which the IC50 at Human M3 receptor is 0.3 to 3 nM; at Human β2 adrenoceptor, less than 0.3 nM.
In the case of `O=C(OCC1CCN(Cc2ccccc2)CC1)[C@](O)(c1ccccc1)c1cccc(OCCCCCCCCNCC(O)c2ccc(O)c3[nH]c(=O)ccc23)c1` (stereo in doubt) [Compound 30, (S)-(1-benzylpiperidin-4-yl)methyl 2-hydroxy-2-(3-((8-(((R)-2-hydroxy-2-(8-hydroxy-2-oxo-1,2-dihydroquinolin-5-yl)ethyl)amino)octyl)oxy)phenyl)-2-phenylacetate], the IC50 at Human M3 receptor and on Human β2 adrenoceptor was 0.3 to 3 nM in each case.
On to `O=C(NCC(=O)N1CCC(COc2cccc([C@](O)(C(=O)OCC3CCN(Cc4ccccc4)CC3)c3ccccc3)c2)CC1)c1ccc(CNC[C@H](O)c2ccc(O)c3[nH]c(=O)ccc23)cc1` [Compound 154, (1-benzylpiperidin-4-yl)methyl (S)-2-hydroxy-2-(3-((1-((4-((((R)-2-hydroxy-2-(8-hydroxy-2-oxo-1,2-dihydroquinolin-5-yl)ethyl)amino)methyl)benzoyl)glycyl)piperidin-4-yl)methoxy)phenyl)-2-phenylacetate], for which the IC50 at Human M3 receptor and on Human β2 adrenoceptor was less than 0.3 nM in each case.
For the compound `O=C(COc1cccc([C@](O)(C(=O)OCC2CCN(Cc3ccccc3)CC2)c2ccccc2)c1)NC1CCN(C(=O)c2ccc(CCNC[C@H](O)c3ccc(O)c4[nH]c(=O)ccc34)cc2)CC1` [Compound 91, (1-benzylpiperidin-4-yl)methyl (S)-2-hydroxy-2-(3-(2-((1-(4-(2-(((R)-2-hydroxy-2-(8-hydroxy-2-oxo-1,2-dihydroquinolin-5-yl)ethyl)amino)ethyl)benzoyl)piperidin-4-yl)amino)-2-oxoethoxy)phenyl)-2-phenylacetate], the IC50 is 0.3 to 3 nM at Human M3 receptor and less than 0.3 nM on Human β2 adrenoceptor.
With `O=C(COc1cccc([C@](O)(C(=O)OCC2CCN(Cc3ccccc3)CC2)c2ccccc2)c1)N[C@H]1C[C@H](NC(=O)c2ccc(CNC[C@H](O)c3ccc(O)c4[nH]c(=O)ccc34)c(F)c2)C1` [Compound 132, (1-benzylpiperidin-4-yl)methyl (S)-2-(3-(2-(((1R,3S)-3-(3-fluoro-4-((((R)-2-hydroxy-2-(8-hydroxy-2-oxo-1,2-dihydroquinolin-5-yl)ethyl)amino)methyl)benzamido)cyclobutyl)amino)-2-oxoethoxy)phenyl)-2-hydroxy-2-phenylacetate], the IC50 on Human M3 receptor was 0.3 to 3 nM; on Human β2 adrenoceptor, less than 0.3 nM.
On the same counts, the results for `O=C(COc1cccc([C@](O)(C(=O)OCC2CCN(Cc3ccccc3)CC2)c2ccccc2)c1)N[C@H]1C[C@H](NC(=O)c2ccc(CNC[C@H](O)c3ccc(O)c4[nH]c(=O)ccc34)cc2Cl)C1` [Compound 133, (1-benzylpiperidin-4-yl)methyl (S)-2-(3-(2-(((1R,3S)-3-(2-chloro-4-((((R)-2-hydroxy-2-(8-hydroxy-2-oxo-1,2-dihydroquinolin-5-yl)ethyl)amino)methyl)benzamido)cyclobutyl)amino)-2-oxoethoxy)phenyl)-2-hydroxy-2-phenylacetate] are less than 0.3 nM and less than 0.3 nM.
`O=C(NCCCOc1cccc([C@](O)(C(=O)OCC2CCN(Cc3ccccc3)CC2)c2ccccc2)c1)c1ccc(CNC[C@H](O)c2ccc(O)c3[nH]c(=O)ccc23)c(C(F)(F)F)c1` [Compound 32M, (S)-(1-benzylpiperidin-4-yl)methyl (S)-2-hydroxy-2-(3-(3-(4-((((R)-2-hydroxy-2-(8-hydroxy-2-oxo-1,2-dihydroquinolin-5-yl)ethyl)amino)methyl)-3-(trifluoromethyl)benzamido)propoxy)phenyl)-2-phenylacetate]: the IC50 was 0.3 to 3 nM at Human M3 receptor and more than 3 nM at Human β2 adrenoceptor.
On the same counts, the results for `O=C(COc1cccc([C@](O)(C(=O)OCC2CCN(Cc3ccccc3)CC2)c2ccccc2)c1)N[C@H]1C[C@H](NC(=O)c2ccc(CNC[C@H](O)c3ccc(O)c4[nH]c(=O)ccc34)cn2)C1` [Compound 144, (1-benzylpiperidin-4-yl)methyl (S)-2-hydroxy-2-(3-(2-(((1R,3S)-3-(5-((((R)-2-hydroxy-2-(8-hydroxy-2-oxo-1,2-dihydroquinolin-5-yl)ethyl)amino)methyl)picolinamido)cyclobutyl)amino)-2-oxoethoxy)phenyl)-2-phenylacetate] are 0.3 to 3 nM and less than 0.3 nM.
Take `O=C(N[C@H]1CCCN(C(=O)COc2cccc([C@](O)(C(=O)OCC3CCN(Cc4ccccc4)CC3)c3ccccc3)c2)C1)c1ccc(CCNC[C@H](O)c2ccc(O)c3[nH]c(=O)ccc23)cc1` [Compound 108, (1-benzylpiperidin-4-yl)methyl (S)-2-hydroxy-2-(3-(2-((S)-3-(4-(2-(((R)-2-hydroxy-2-(8-hydroxy-2-oxo-1,2-dihydroquinolin-5-yl)ethyl)amino)ethyl)benzamido)piperidin-1-yl)-2-oxoethoxy)phenyl)-2-phenylacetate]: the IC50 on Human M3 receptor and at Human β2 adrenoceptor was 0.3 to 3 nM each time.
